The values that follow are results of earlier work, collected in patent publication US20190274964A1, “NEW IMPROVED COMPOSITION OF RACECADOTRIL” (JOHNSON & JOHNSON CONSUMER INC., priority 2016, published 2019).

The data set relates to castor-oil induced diarrhea. To be noted: rats.

With `CC(=O)SCC(Cc1ccccc1)C(=O)NCC(=O)OCc1ccccc1` (centres unmarked) [Racecadotril, benzyl N-[3-(acetylthio)-2 benzylpropanoyl] glycinate], the “Inhibition of castor-oil induced diarrhea” value was “inhibit castor-oil induced diarrhea”. The “Cumulative stool weight following challenge with castor oil” value (pre-treatment p.o.) was “reduction in cumulative stool weight”. Also, the Time to onset result (pre-treatment p.o., dose-response relationship could not be established) is “significantly delayed”.

Turning to `O=C(O)CNC(=O)C(CS)Cc1ccccc1` (centres unmarked) [thiorphan], the “Inhibition of castor-oil induced diarrhea” value is reported as “inhibit castor-oil induced diarrhea”. Also, the “Protection against diarrhea as measured by cumulative stool weight and time to onset” value (intravenous administration, most prominent during first two hours following challenge) is “dose-dependent protection against diarrhea”.
